In this assay the target is T1, human macrophage galactose-type lectin (hMGL) (Homo sapiens, UniProt Q8IUN9).
T1 sequence (Q8IUN9 1-316): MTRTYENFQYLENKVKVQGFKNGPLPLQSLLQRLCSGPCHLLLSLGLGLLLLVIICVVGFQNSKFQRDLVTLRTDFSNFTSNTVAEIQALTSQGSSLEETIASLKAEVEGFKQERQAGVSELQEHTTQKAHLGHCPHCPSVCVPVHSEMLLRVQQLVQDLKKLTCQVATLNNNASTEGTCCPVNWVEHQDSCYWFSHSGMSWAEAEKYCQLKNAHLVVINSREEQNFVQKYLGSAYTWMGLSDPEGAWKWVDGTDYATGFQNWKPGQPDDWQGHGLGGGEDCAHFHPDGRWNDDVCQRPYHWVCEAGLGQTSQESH
In words: ITC analysis of binding of GalNAc and MUC1.

[1] abbreviates: 10 mM HEPES sodium salt, 50 mM NaCl, 2 mM CaCl2, pH 7.4, 298 K, one-site model.

In the case of `CC(=O)N[C@H]1C(O)O[C@H](CO)[C@H](O)[C@@H]1O` (mixture of isomers) [GalNAc, N-acetylgalactosamine], under setting [1], the KA turned out to be 68000 M⁻¹, the ΔG is -6.59 kcal/mol and the “−TΔS” value came to 4.97 kcal/mol. Moreover, the “n (stoichiometry)” value (complete saturation of hMGL, functional valency = 1/n, pH 7.4, 298 K) was 0.99.

Source of the values: publication PMC11560554 (Chembiochem : a European journal of chemical biology, 2024).
